Patent US11103523B2, “Self-assembled brush block copolymer-nanoparticles for drug delivery” (UNIVERSITY OF CONNECTICUT, priority 2013, dated 2021)

Tests used:
[1] = tested on: HeLa cells; experiment: Intracellular uptake in HeLa cells (confocal microscopy and flow cytometry); assay type: cell-based, human; conditions: 25 μg/mL DOX equivalents
Method: To observe the cellular uptake, HeLa cells were seeded at a density of 1.0×10^5 cells/well in an 8-well chamber of a Lab-Tek II chamber slide and pre-incubated for 24 h at 37° C. and 5% CO2. Serum-free DMEM containing free DOX and DOX-NPs at equivalent doses (25 μg/mL) was added to each well, followed by incubation for 2 h at 37° C. The cells were then rinsed with PBS, stained with 10 μM Draq5 and fixed with 4% formaldehyde solution for 10 min. Cover glasses were then placed on glass slides. The cellular uptake of free DOX and DOX-NPs was imaged by confocal laser scanning microscopy (Leica, England) at an excitation wavelength of 488 nm for DOX and 633 nm for Draq5.
To quantify cellular uptake, HeLa cells (5×10^5 cells/well) in 0.5 mL were grown on a 24-well plate at 37° C. in a humidified atmosphere of 5% CO2 for 24 h. Serum-free DMEM containing free DOX and DOX-NPs at equivalent doses (25 μg/mL) was added to the cells which were subsequently incubated for 2 h. The cells were then washed three times with PBS, harvested by trypsinization and transferred into Fluorescence Activated Cell Sorter (FACS) tubes. All samples were analyzed by flow cytometry (FACSCalibur, BD Biosciences, San Jose, Calif.) to determine cellular internalization. Fluorescence measurements of intracellular DOX were performed in the FL2 channel.

[2] = tested on: A549 cells; experiment: Antitumor activity and systemic toxicity in SCID mice bearing subcutaneous A549 tumors; assay type: in vivo
Method: The antitumor efficacy of DOX and DOX-NPs was evaluated in SCID mice inoculated subcutaneously in the right flank with 0.1 mL PBS containing 2×10^6 A549 cells. When the tumors grew to approximately 20-30 mm^3 (9 days after tumor implantation), the mice were randomly divided into three groups (n=5-6), and this day was designated as day 0. The mice were injected intravenously twice a week via tail vein with saline (control), free DOX and DOX-NPs (100 μL) at 2.5 mg/kg of equivalent DOX. Antitumor activity was evaluated in terms of tumor volume which was calculated using the following equation: Tumor volume (mm^3)=width^2×length/2. The body weight was measured simultaneously as an indicator of the systemic toxicity.

[3] = Tissue distribution of DOX in A549 tumor-bearing SCID mice; assay type: in vivo; conditions: 24 h after i.v. 2.5 mg/kg equivalent DOX
Method: For the tissue distribution study, tumor-bearing severe combined immunodeficient (SCID) between 6 and 8 weeks-old mice were inoculated with 0.1 mL PBS containing 2×10^6 human lung cancer cells (A549) into the right flank. […] Twenty four hours after injection, mice were sacrificed for blood and organ collection including tumor, liver, spleen, kidney, lung, and heart. Tissues were then weighed and homogenized in the lysis buffer (0.1 M Tris-HCl, 2 mM EDTA, 0.1% Triton X-100) using a probe sonicator (Qsonica LLC, CT). The lysate of each tissue was centrifuged at 14,000 rpm for 20 min at 4° C. The blood was centrifuged at 3000 rpm for 10 min at 4° C.

[4] = tested on: HeLa cells; experiment: Cytotoxicity in HeLa cells, MTT; conditions: all DOX concentrations (1-50 μg/mL), 24 h
Method: HeLa cells (7500 cells/well) were seeded on 96-well plates and cultured in 200 μL of DMEM supplemented with 10% FBS, 1% antibiotics, and 1% L-glutamine for 24 h at 37° C. and 5% CO2. After incubation, various concentrations of the blank nanoparticles (0.2-1 mg/mL), DOX-NPs, and free DOX (1-50 μg/mL of DOX equivalents) dissolved in DMEM without supplements were added. After 24 h of incubation with free DOX and DOX-NPs, and 48 h with blank nanoparticles, cytotoxicity was determined using 3-[4,5-dimethylthiazol-2-yl]-3,5-diphenyltetrazolium bromide dye (MTT dye, final concentration of 0.5 mg/mL) uptake at 540 nm on a microplate reader (Tecan group Ltd., Mannedorf, Switzerland).

[5] = 2.5 mg/kg equivalent DOX, tumor-bearing SCID mice

Question: With COc1cccc2c1C(=O)c1c(O)c3c(c(O)c1C2=O)C[C@@](O)(C(=O)CO)C[C@@H]3O[C@H]1C[C@H](N)[C@H](O)[C@H](C)O1 [free DOX, doxorubicin] as the compound, how does the “mean fluorescence intensity (flow cytometry)” value ([1]; 2 h) read?
Answer: greater fluorescence intensity than those treated with DOX-NPs

Question: What about the “intracellular distribution of DOX fluorescence (CLSM)” value ([1]; 2 h of incubation) of the same compound?
Answer: strong red color in the nuclei

Question: What about the “effect on tumor growth” value ([2]; 2.5 mg/kg equivalent DOX i.v. twice a week) of the same compound?
Answer: tumor growth was inhibited

Question: What about the “decrease in body weight” value [2, 5] of the same compound?
Answer: 28.1±1.2%

Question: And the survival [2, 5]?
Answer: death of all mice within 11 days

Question: And the “tissue with greatest / lowest concentration of DOX” value [3]?
Answer: greatest in the liver and lowest in the tumor

Question: What about the cytotoxicity comparison [4] of the same compound?
Answer: significantly higher cytotoxicity than DOX-NPs
